Like-named read-outs stand apart in the source and are kept apart here. Positions of bridges follow the written chain, without caps; N, C: chain ends. Residues, ends and D or L forms follow the SMILES beside them. No end group written: not given here.

Assay [1] deals with T1, NMDA receptor complex, glycine co-agonist site (Rattus norvegicus, UniProt P35439).
T1 construct: Crude synaptic membranes used in the assay were prepared using rat hippocampal tissue; from tissue; host or cells: rat hippocampus, crude synaptic membranes
In kind it is biochemical. Particulars: rat hippocampus membranes, in the presence of 7-chlorokynurenic acid, ± S.E.M. As for the experimental part: Polypeptides or amino acid compositions of the instant invention were tested for the ability to mimic the glycine co-agonist effect on the NMDA receptor using a previously validated [^3 H]MK-801 binding assay. This functional assay takes advantage of the fact that increased [^3 H]MK-801 binding by NMDA receptors can only occur upon receptor-binding channel opening. This is because the MK-801 binding site is located inside the ionophore of the NMDA receptor complex, and is thus only accessible upon the opening of the receptor complex channel. Thus increased binding of [^3 H]MK-801 is directly correlated with increased channel opening, in this assay, triggered by the binding of the polypeptides or amino acid compositions of the instant invention to the glycine co-agonist binding site.
To further refine the assay, a selective antagonist of the glycine binding site of the NMDA receptor-channel complex is added to the assay. The normal action of 7-chlorokynurenic acid is to selectively bind to the glycine site, and inhibit NMDA receptor channel opening, and thus inhibit the binding of [^3 H]MK-801 to the NMDA receptor complex.
Crude synaptic membranes used in the assay were prepared using rat hippocampal tissue (male Sprague-Dawly rats) and extensively washed using the procedures described previously (Haring et al., 1991, J. Neurochem. 57:323-331). Briefly, tissue which has been stored at -80-- C is homogenized in ice cold 5 mM Tris (pH 7.4) using a Brinkman Polytron® and then pelleted by centrifugation at 48,000 g for 20 minutes. The resulting supernatant is discarded, and the membranes washed three times in cold buffer. Pellets are then resuspended in 5 mM EDTA, 15 mM Tris (pH 7.4), and incubated for one hour at 37-- C. The membrane suspensions are then pelleted by centrifugation at 48,000g for 20 min and stored at -80-- C until use in the assay.
Frozen pellets are thawed at room temperature and washed three times by resuspension in 5 mM Tris (pH 7.4) and centrifugation. Final pellets are suspended at concentrations of 2 to 3 mg/ml in 5 mM Tris buffer (pH 7.4). Binding reactions are initiated by the addition of 200-- g of freshly prepared membranes to reaction mixtures (about 1 ml final volume) containing 1 nM [^3 H]MK-801 at 25-- C in the presence of a range of peptide concentrations and 60-- M 7-chlorokynurenic acid. Non-specific binding is determined using 10-- M unlabelled MK-801. Binding reactions are terminated by filtration through a Brandel 24-well cell harvester onto Whatman GF/B glass filters that have been presoaked in 0.25% polyethyleneimine for 30 minutes.

In assay [2] the target is T1, NMDA receptor complex, glycine co-agonist site. In kind it is biochemical. Particulars: in the presence of 10 μM L-glutamate, ± S.E.M.
In assay [3] the target is T2, mouse NMDA receptor subunits z1 and e1 expressed in oocytes (Mus musculus, UniProt P35438).
T2 construct: expressed in transfected cells
Briefly: Electrophysiological NMDA specific activity assay, two-electrode voltage clamp in oocytes. In kind it is cell-based. As for the experimental part:
Electrophysiological recordings are made with two-electrode voltage-clamp techniques, and standard oocyte expression system preparations (see Leonard and Kelso, 1990, Neuron 4:53-60; Kelso et al., 1992, J. Physiology 449:705-718). Oocytes are isolated and injected with mRNA for mouse NMDA receptor subunits: 70 nl of z1 (-- 1) RNA is co-injected with an equal volume of e1 (-- 1) RNA. After incubation for two days, recordings are made while clamping membrane potential at -80 mV. The standard recording solution contains 95 mM NaCl, 2 mM KCl, 3.8 mM BaCl2, and 5 mM HEPES. Mg^2+ is omitted because it blocks NMDA currents at some potentials; Ca^2+ is omitted because it can trigger the oocyte's endogenous Ca^2+ -dependent chloride current. Responses are evoked by the continuous perfusion of 3-5 ml of NMDA containing solutions. The recording chamber has a volume of about […].
In general terms: Two-electrode voltage clamp is typically applied to oocytes expressing channels or transporters.

Consider SQQHYSTPPTS [NT-11], for which the “[3H]MK-801 binding, percentage of control binding” value (from here on “[3H]MK-801 binding, percentage”) was 127 ± 21% in assay [1] (10^-5 M peptide); 120 ± 11% in assay [1] (10^-6 M peptide); 118 ± 4% in assay [1] (10^-7 M peptide); 111 ± 4% in assay [1] (10^-8 M peptide); 96 ± 23% in assay [1] (10^-9 M peptide).
Regarding “SASYRYT [NT-2, Ser-Ala-Ser-Tyr-Arg-Tyr-Thr]”, the “[3H]MK-801 binding, percentage” value was 77 ± 12% in assay [2] (10^-5 M peptide), 106 ± 4% in assay [2] (10^-6 M peptide), 109 ± 15% in assay [2] (10^-7 M peptide) and 80 ± 9% in assay [2] (10^-8 M peptide).
As to FTISSVQAELDLAVYYSQQHYSTPPT [NT-7], the “[3H]MK-801 binding, percentage” value is recorded as 100 ± 3% in assay [1] (10^-5 M peptide); 104 ± 0% in assay [1] (10^-6 M peptide); 97 ± 1% in assay [1] (10^-7 M peptide); 103 ± 4% in assay [1] (10^-8 M peptide); 96 ± 4% in assay [1] (10^-9 M peptide).
The corresponding values for `C[C@@H](O)[C@H](N)C(=O)N1CCC[C@H]1C(=O)N[C@H](C(=O)O)[C@@H](C)O` [NT-17, Thr-Pro-Thr] (H-Thr-Pro-Thr-OH) are 119 ± 21%, 117 ± 14%, 128 ± 9%, 125 ± 17% and 122 ± 23%.
On the same counts, the results for QQHYSTPPT [NT-3] are 90 ± 1%, 111 ± 11%, 121 ± 4%, 123 ± 0% and 112 ± 20%.
For `C[C@@H](O)[C@@H]1NC(=O)[C@@H]2CCCN2C(=O)[C@@H]2CCCN2C(=O)[C@H]([C@@H](C)O)NC(=O)[C@H](CO)NC(=O)[C@H](Cc2ccc(O)cc2)NC(=O)[C@H](Cc2c[nH]cn2)NC(=O)[C@H](CCC(N)=O)NC(=O)[C@H](CCC(N)=O)NC(=O)[C@@H](N)CSSC[C@@H](C(=O)O)NC1=O` [NT-10] (H-CQQHYSTPPTC-OH; disulfide 1-11), the “[3H]MK-801 binding, percentage” value in assay [1] (10^-5 M peptide) worked out at 116 ± 12%; in assay [1] (10^-6 M peptide), 128 ± 4%; in assay [1] (10^-7 M peptide) it was 114 ± 3%; in assay [1] (10^-8 M peptide) it was 90 ± 8%; in assay [1] (10^-9 M peptide), 100 ± 2%.
On the same counts, the results for `C[C@@H](O)[C@H](N)C(=O)N1CCC[C@H]1C(=O)N1CCC[C@H]1C(=O)N[C@H](C(=O)O)[C@@H](C)O` [NT-13, Thr-Pro-Pro-Thr] (H-TPPT-OH) are 117 ± 7%, 129 ± 10%, 110 ± 10%, 103 ± 8% and 97 ± 8%.
For the compound `NCC(=O)O` [glycine], in assay [3] (100-- M NMDA with 10-- M glycine, -80 mV), the “NMDA current (FIG. 3B)” value is listed as “about 284 nA”.
Regarding SVQAELDLAVYYSQQHYSTPPT [NT-6], the “[3H]MK-801 binding, percentage” value in assay [1] (10^-5 M peptide) was found to be 91 ± 7%; in assay [1] (10^-6 M peptide), 96 ± 1%; in assay [1] (10^-7 M peptide) it was 101 ± 15%; in assay [1] (10^-8 M peptide) it was 101 ± 9%; in assay [1] (10^-9 M peptide) it was 95 ± 6%.
On the same counts, the results for VYYSQQHYSTPPT [NT-4] are 109 ± 10%, 110 ± 1%, 116 ± 2%, 106 ± 6% and 106 ± 2%.
The corresponding values for QQHYS [NT-12, Gln-Gln-His-Tyr-Ser] are 106 ± 2%, 106 ± 9%, 95 ± 7%, 104 ± 10% and 95 ± 21%.
Consider `CN[C@H](CC(=O)O)C(=O)O` [NMDA, N-methyl-D-aspartate], for which the “NMDA current (FIG. 3B)” value in assay [3] (NMDA alone, same cell) is reported as “about 7 nA”.
EDLAVYYSQQHYSTPPT [NT-5]: the “[3H]MK-801 binding, percentage” value amounted to 112 ± 4% in assay [1] (10^-5 M peptide); 106 ± 2% in assay [1] (10^-6 M peptide); 114 ± 2% in assay [1] (10^-7 M peptide); 100 ± 9% in assay [1] (10^-8 M peptide); 109 ± 8% in assay [1] (10^-9 M peptide).
The corresponding values for `C[C@@H](O)[C@H](NC(=O)[C@@H]1CCCN1C(=O)[C@@H]1CCCN1)C(=O)O` [NT-15, Pro-Pro-Thr] (H-Pro-Pro-Thr-OH) are 93 ± 1%, 108 ± 12%, 100 ± 7%, 103 ± 2% and 99 ± 21%.
In the case of KASQDVSTTVA [NT-1], the results for the “[3H]MK-801 binding, percentage” value in assay [2] (10^-5 M peptide), in assay [2] (10^-6 M peptide) and in assay [2] (10^-7 M peptide) were 73 ± 6%, 100 ± 2% and 97 ± 2%, respectively.
Take QQHYSTPPTFGGG [NT-8]: the “[3H]MK-801 binding, percentage” value in assay [1] (10^-5 M peptide) was found to be 115 ± 6%; in assay [1] (10^-6 M peptide), 107 ± 6%; in assay [1] (10^-7 M peptide) it was 108 ± 4%; in assay [1] (10^-8 M peptide) it was 110 ± 5%; in assay [1] (10^-9 M peptide), 105 ± 7%.
The corresponding values for `C[C@@H](O)[C@H](N)C(=O)N1CCC[C@H]1C(=O)N1CCC[C@H]1C(=O)O` [NT-14, Thr-Pro-Pro] (H-Thr-Pro-Pro-OH) are 95 ± 4%, 98 ± 8%, 96 ± 5%, 101 ± 1% and 89 ± 6%.
The corresponding values for QQHYSTPPTFGGGTKLE [NT-9] are 120 ± 3%, 112 ± 10%, 125 ± 5%, 126 ± 7% and 104 ± 12%.
On the same counts, the results for `O=C(O)[C@@H]1CCCN1C(=O)[C@@H]1CCCN1` [NT-16, Pro-Pro] (H-Pro-Pro-OH) are 117 ± 12%, 103 ± 3%, 97 ± 6%, 89 ± 8% and 83 ± 9%.

(Values after patent publication US6107271A, “Neuroactive peptides” (NYXIS Neuro Therapies, Inc., priority 1998, dated 2000).)
